Values joined by “and” are separate entries in the source; they are usually repeats but may differ in a detail not shown here. Identical values can stand only once. “Also recorded” adds a separate entry of the source.
Experiments:
Format in all cases: cell-based, rat
[1] = system: dissociated hippocampal cultures; assay: Dendritic beading in cultured neurons after depolarizing KCl pulses; conditions: for dendritic beading after 1 s KCl pulses in cPAF-exposed cultures: CNQX 10 μM together with AP-5 50 μM
Description: (§1) Primary hippocampal cultures and dendrite imaging. Dissociated hippocampal cultures from embryonic (E18) rats were prepared as previously described (53), plated on coverslips coated with poly-D-lysine and mouse laminin (reagents from Sigma-Aldrich unless otherwise noted) in Neurobasal plus B-27 media (GIBCO). After one week, 53 mM NaCl was added (to match solutions for physiological experiments) and antioxidants were removed from the media. Experiments were repeated using cultures from multiple dissections. Rodents were housed and treated in compliance with University of Rochester Committee on Animal Resources and NIH policies, and New York State and federal statutes.
(§2) At 20-24 days in vitro (DIV) neurons were transfected with EYFP (Clontech) or mRFP-1 (kind gift of Roger Tsien) vectors driven by CMV promoter, in a 1:2 ratio with Lipofectamine 2000 (Invitrogen). Serial fluorescence images of individual, live neurons (23-30 DIV) before and after exposure to 130 nM cPAF (Biomol) and/or synaptic stimulation by KCl were captured. For 60-hour exposure experiments, a 10 mM stock solution of cPAF (in EtOH) or vehicle was diluted into culture media. Neuronal survival was measured by Hoechst nuclear staining and propidium iodide exclusion.
For acute KCl stimulation experiments, coverslips were perfused in a custom-made chamber (200 μl) with bath solution (in mM: NaCl 139.5, KCl 2.5, CaCl2 2, MgCl2 1, glucose 24, HEPES 5, glycine 0.01, pH 7.3) at […], and exposed cultures to vehicle or cPAF for 20-90 min prior to stimulation. KCl (90 mM) was locally applied over the entire dendritic arbor of EYFP- or mRFP-expressing neurons in three 1- or 5-s pulses (10 s apart) using an 8-channel drug delivery system (ALA Scientific Instruments). In some experiments BN52021 (Biomol) or CNQX and AP-5 were added.
(§3) Dendrite morphology. For in vitro experiments pre- and post-exposure images of the same cells were compared. A neuron was considered beaded if its dendrites developed any focal swellings during the experiments (10, 14), though multiple dendrites were typically involved. Changes in spine number were determined by counting spines on the same dendrites before and after treatment.
(§4) Statistics. Differences in frequencies of dendritic beading were analyzed by Chi square, and changes in dendritic spine number by paired t-test. EPSP slope data were pooled over 10-minute intervals and used two-tailed t-tests to compare between groups or time points. A 0.05 significance level was used for all tests.

CA1 pyramidal neurons [2] = assay: EPSP potentiation (LTP) after HFS in acute hippocampal slices, whole-cell patch clamp; conditions: for effect on synaptic potentiation / LTP in cPAF-exposed slices: BAPTA 5 mM, Ac-DEVD-CHO 10 μM, diazoxide 30 μM, PAF-R antagonists
Description: (§5) Imaging and LTP in acute hippocampal slices. Brains were removed from 17-30 day-old male Sprague-Dawley rats anesthetized with ketamine (180 μg/g), submerged them in ice-cold solution (in mM: NaCl 125, KCl 5, NaH2PO4 1.25, NaHCO3 28, CaCl2 0.5, MgCl2 4, D-glucose 25, kynurenic acid 1, bubbled with 95% O2/5% CO2), and cut 250 μm coronal slices using a vibroslice. Slices recovered in artificial cerebrospinal fluid (aCSF, in mM: NaCl 125, KCl 2.5, NaH2PO4 1.25, NaHCO3 25, CaCl2 2, MgCl2 1, D-glucose 25, bubbled with 95% O2/5% CO2) for >90 min prior to experiments.
(§6) Slices were transferred to a custom-made recording chamber perfused (1 ml/min) with aCSF containing 1 μM cPAF or vehicle. Membrane potentials from CA1 pyramidal neurons were recorded via whole-cell patch clamp, using 4-6 MΩ electrodes (filled with, mM: KCl 20, potassium gluconate 130, EGTA 0.5, HEPES10, MgSO4 2, ATP 2.5, GTP 0.5, pH 7.3) and a Multiclamp 700A amplifier with pClamp 9 software (Axon Instruments). Afferents were stimulated by constant current pulses (200 μs) via a bipolar stimulating electrode 50-200 μm away in the stratum radiatum. 10 μM bicuculline were included in the aCSF to isolate EPSPs, and adjusted stimulating intensity to elicit EPSPs 30% of maximal. After >10 min of test pulses (every 15 s), […] a high-frequency stimulus (HFS; three 1 s, 100 Hz trains, 20 s apart, at test-pulse intensity), then resumed test pulses for ≧50 min. […] Rising EPSP slope was used instead of peak amplitude as an index of synaptic efficacy to, avoid complication by action potentials evoked by some EPSPs after HFS. Amplitude (maximal sustained depolarization) and duration (at >25% maximal amplitude) of depolarization during HFS were also quantified.
as §4

CA1 pyramidal neurons [3] = assay: Dendritic beading after high-frequency Schaffer collateral stimulation (HFS) in acute hippocampal slices; conditions: for effect on HFS-induced dendritic beading in cPAF-exposed slices: BAPTA 5 mM in pipette, Ac-DEVD-CHO 10 μM intracellular, L-NAME 100 μM, diazoxide 30 μM bath 40 to 60 min prior to HFS; for rate of beading following HFS in cPAF-exposed neurons: 1 μM cPAF plus CV-3988 10 μM, BN52021 2 μM or L-NAME 100 μM
Description: as §5, §6
Fluorescent images of dendrites from recorded cells were collected before and after HFS, after allowing 30 μM Alexa Fluor 568 hydrazide (Molecular Probes) in the recording electrode to fill the cell for >20 min. Using an external shutter to limit light exposure, image frames were captured at multiple focal planes and combined optimally-focused portions of these frames to display a composite image.
as §3, §4

CA1 pyramidal neurons [4] = assay: Membrane potential and depolarization during HFS in hippocampal slices
Description: as §5
Slices were transferred to a custom-made recording chamber perfused (1 ml/min) with aCSF containing 1 μM cPAF or vehicle. Membrane potentials from CA1 pyramidal neurons were recorded via whole-cell patch clamp, using 4-6 MΩ electrodes (filled with, mM: KCl 20, potassium gluconate 130, EGTA 0.5, HEPES10, MgSO4 2, ATP 2.5, GTP 0.5, pH 7.3) and a Multiclamp 700A amplifier with pClamp 9 software (Axon Instruments). Afferents were stimulated by constant current pulses (200 μs) via a bipolar stimulating electrode 50-200 μm away in the stratum radiatum. 10 μM bicuculline were included in the aCSF to isolate EPSPs, and adjusted stimulating intensity to elicit EPSPs 30% of maximal. […] Amplitude (maximal sustained depolarization) and duration (at >25% maximal amplitude) of depolarization during HFS were also quantified.

[5] = system: dissociated hippocampal cultures; assay: 60-hour cPAF exposure of dissociated hippocampal cultures: dendritic beading, spine number, neuronal survival; conditions: 130 nM cPAF, 60-hour exposure
Description: as §1, §2, §3, §4

hippocampal slices = assay: Rhodamine 123 fluorescence (mitochondrial depolarization) after HFS in hippocampal slices; conditions: 1 μM cPAF
Description: The present experiments measure changes in mitochondrial membrane potential during and after HFS in hippocampal slices using the rhodamine 123, a cationic dye that distributes across the mitochondrial membrane in a voltage-sensitive manner. When loaded into hippocampal slices at a dose of 26 μM, rhodamine 123 accumulates in the mitochondria at high concentrations that causes its fluorescence to quench; if the mitochondria are subsequently depolarized, rhodamine 123 is released into the cytoplasm and its fluorescent signal increases. Mitochondrial hyperpolarization, conversely, drives more dye from the cytoplasm into the mitochondria, increasing quenching and reducing the signal. Reliability of this interpretation was confirmed by control experiments using FCCP and oligomycin to respectively depolarize and hyperpolarize the mitochondria.

[6] = 130 nM cPAF, BN52021 10 μM pre-treatment
[7] = cPAF-exposed slices plus compound (BN52021 2 μM, CV-3988 10 μM, Ac-DEVD-CHO 10 μM, diazoxide 30 μM), 40 to 50 min
[8] = cPAF-treated slices plus PAF-R antagonist

`NC(CCCP(=O)(O)O)C(=O)O` (stereo not shown) [AP-5] was tested, and the “dendritic beading after 1 s KCl pulses in cPAF-exposed cultures” value (from here on “dendritic beading after 1 s KCl pulses”) [1, 6] was “prevented”.
With `O=C(O)CN(CC(=O)O)c1ccccc1OCCOc1ccccc1N(CC(=O)O)CC(=O)O` [BAPTA] the “effect on synaptic potentiation / LTP in cPAF-exposed slices” value (CA1 pyramidal neurons [2]) was “eliminated synaptic potentiation” and the “effect on HFS-induced dendritic beading in cPAF-exposed slices” value (“effect on HFS-induced dendritic beading” for short) (CA1 pyramidal neurons [3]) was “prevented dendritic beading; also recorded: eliminated dendritic beading”.
`CC1C(=O)OC2C(O)C34C5CC(C(C)(C)C)C36C(OC(=O)C6O)OC4(C(=O)O5)C12O` (stereo not shown) [BN52021] was tested, and the “EPSP potentiation following HFS” value (CA1 pyramidal neurons [2]; [7]) was 1.29±0.05 relative to baseline, the “dendritic beading after 1 s KCl pulses” value [1, 6] was “no cells developed beading; also recorded: blocked the increase in vulnerability” and the “cells beaded after 5 s KCl pulses” value ([1]; cPAF-exposed, BN52021 10 μM pre-treatment) was 86%. For the same compound, the “rate of beading following HFS in cPAF-exposed neurons” value (from here on “rate of beading following HFS”) (CA1 pyramidal neurons [3]) was 10% and the “cells with dendritic beading elicited by HFS” value (from here on “cells … by HFS”) (CA1 pyramidal neurons [3]; [8]) was 1 of 10.
In the case of `N#Cc1cc2[nH]c(=O)c(=O)[nH]c2cc1[N+](=O)[O-]` [CNQX], the “dendritic beading after 1 s KCl pulses” value [1, 6] is reported as “prevented”.
In the case of `CCCCCCCCCCCCCCCCCCNC(=O)OCC(COP(=O)([O-])OCC[n+]1ccsc1)OC` (stereo not shown) [CV-3988], the “EPSP potentiation following HFS” value (CA1 pyramidal neurons [2]; [7]) is reported as 1.07±0.13 relative to baseline, the “rate of beading following HFS” value (CA1 pyramidal neurons [3]) is reported as 14% and the “cells … by HFS” value (CA1 pyramidal neurons [3]; [8]) is reported as 1 of 7.
For `COC(=O)[C@@H](N)CCCNC(=N)N[N+](=O)[O-]` [L-NAME], the “rate of beading following HFS” value (CA1 pyramidal neurons [3]) was 57% and the “effect on HFS-induced dendritic beading” value (CA1 pyramidal neurons [3]) was “no protection; also recorded: no effect”.
With `CCCCCCCCCCCCCCCCOC[C@H](COP(=O)([O-])OCC[N+](C)(C)C)OC(=O)NC` [cPAF] the baseline membrane potential (CA1 pyramidal neurons [4]; 1 μM cPAF for up to 7 hours) was −63±3.6 mV, the “duration of depolarization during HFS” value (CA1 pyramidal neurons [4]; cPAF-exposed neurons) was 693 ± 296 ms and the “EPSP potentiation following HFS” value (CA1 pyramidal neurons [2]; 1 μM cPAF, cells that did not develop dendritic beading, 40 to 50 min) was 1.60±0.26 relative to baseline. For the same compound, the “EPSP potentiation following HFS” value (CA1 pyramidal neurons [2]; 1 μM cPAF, cells whose dendrites beaded, 40 to 50 min) was 0.84±0.12 relative to baseline, the “decrease in numbers of dendritic spines” value [5] was 45.1±5.0% and 45±5% and the “neuronal survival by Hoechst and propidium iodide staining” value [5] was 80.2±4.3%. The “neurons that developed dendritic beading” value ([5]; serially-imaged cells) was 56%, the “increase in rhodamine 123 fluorescence compared to control slices” value (hippocampal slices) was “four-fold larger; also recorded: four-fold greater” and the “peak increase in rhodamine 123 fluorescence above baseline following HFS” value (hippocampal slices; CA1 stratum radiatum, 55 s after start of HFS) was 5.90±1.86%. The “cells beaded in response to three 1 s KCl pulses” value ([1]; 130 nM cPAF, acute 20 to 90 min exposure) was 90%, the “recorded neurons with dendritic beading following HFS” value (CA1 pyramidal neurons [3]; 1 μM cPAF for 20 to 60 minutes prior to recording) was 57% and the “delay to appearance of HFS-induced dendritic beading” value (CA1 pyramidal neurons [3]; cPAF-exposed cells) was 15 to 35 min. For the same compound, the “cells … by HFS” value (CA1 pyramidal neurons [3]; cPAF-treated slices) was 11 of 19.
Ac-DEVD-CHO was tested, and the “effect on synaptic potentiation / LTP in cPAF-exposed slices” value (CA1 pyramidal neurons [2]) was “failed to rescue LTP; also recorded: failed to restore a lasting potentiation”, the “EPSP potentiation following HFS” value (CA1 pyramidal neurons [2]; cPAF-exposed slices plus Ac-DEVD-CHO 10 μM, 0 to 10 min) was 1.97±0.28 relative to baseline and the “EPSP potentiation following HFS” value (CA1 pyramidal neurons [2]; [7]) was 1.22±0.19 relative to baseline. For the same compound, the “effect on HFS-induced dendritic beading” value (CA1 pyramidal neurons [3]) was “prevented dendritic beading”.

From patent publication US20090221651A1, “CHEMICAL PRECONDITIONING AS A PREVENTATIVE OR TREATMENT FOR EXCITOTOXIC SYNAPTIC DAMAGE” (priority 2005, published 2009)
